Measured values as given in US7803822B2, “Triazole derivative and use thereof” (Takeda Pharmaceutical Company Limited, priority 2005, dated 2010).

Assays:
[1] = molecular target: T1, human PAR-1 (Homo sapiens, UniProt P25116); assay: GTPγS binding assay with membrane fraction of human PAR-1-expressing cells; format: biochemical; conditions: [35S]-GTPγS binding to human PAR-1-expressing cell membrane fraction; agonist peptide SFLLRN-NH2
T1 construct: expressed in transfected cells; host or cells: CHO-K1 (transformant flag/trn/CHO-K1)
T1 sequence (P25116 22-425): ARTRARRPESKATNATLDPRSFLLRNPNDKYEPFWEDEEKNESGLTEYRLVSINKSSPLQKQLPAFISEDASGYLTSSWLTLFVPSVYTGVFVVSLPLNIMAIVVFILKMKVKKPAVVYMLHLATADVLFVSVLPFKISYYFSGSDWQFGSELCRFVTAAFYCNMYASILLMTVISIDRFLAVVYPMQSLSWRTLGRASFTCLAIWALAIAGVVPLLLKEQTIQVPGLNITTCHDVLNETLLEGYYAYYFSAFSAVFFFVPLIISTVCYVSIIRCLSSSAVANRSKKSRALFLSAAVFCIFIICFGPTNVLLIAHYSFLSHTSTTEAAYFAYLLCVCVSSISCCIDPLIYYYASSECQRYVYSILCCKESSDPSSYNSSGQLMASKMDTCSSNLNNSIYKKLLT
Method: The preparation method of the membrane fraction used for the GTPγS binding assay is shown below.
Human PAR-1-expressing cells were inoculated to an F500 flask at 1.8×10^5 cells/flask, and the cells were cultured for 2 days. The cells were detached with saline containing 0.02% EDTA. The cells were centrifuged (2000 rpm, 10 min), cell pellets were re-suspended in 12 ml of homogenate buffer (10 mM NaHCO3, 1 mM EDTA, protease inhibitor cocktail, pH 7.4), and homogenized by Polytron™. The residual cells were removed by centrifugation (2000 rpm, 10 min), and the supernatant was ultracentrifuged (Beckman Instruments 70 Ti type rotor, 30000 rpm, 1 hr) to give a membrane fraction of human PAR-1-expressing cells in a sediment, which was preserved at −80° C. and dissolved before use for an assay.
The measurement method of the GTPγS binding activity is shown below.
Then, the reaction mixture was filtered through a GF/C filter, washed 4 times with 300 μL of saline, and the radioactivity of the filter was measured by a TopCount scintillation counter.
The concentration (IC50 value) of the test compound necessary for inhibiting the GTPγS binding activity by 50% was calculated using PRISM3.0 (PraphPad software).

[2] = tested on: platelet rich plasma (PRP); assay: Platelet aggregation test (platelet rich plasma), thrombin-induced; format: cell-based; conditions: human PRP, thrombin at minimum concentration causing maximum aggregation; test compound concentration not given
Method: Platelet Aggregation Test (Platelet Rich Plasma)
Using a syringe filled in advance with 3.8% sodium citrate solution (Chitral: Yamanouchi Pharmaceutical Co., Ltd.), its 9-fold volume of venous blood was taken from healthy volunteers. After blood sampling, the blood was centrifuged at room temperature, 2700 G for […] and 15 min to give platelet rich plasma (PRP) and platelet poor plasma (PPP), respectively. PRP was applied to an automated blood cell counter (Sysmex) to adjust the platelet count to 300,000/μL, and fibrin polymerization inhibitory peptide was added thereto to a final concentration of 4 mM. The platelet aggregation rate was measured using an aggregometer (Kowa). To be specific, 200 μL of PRP was placed in a cuvette with a microstirrer, preheated at 37° C. for 2 min, and a test compound solution (20 μL) was added. The mixture was further preheated at 37° C. for 2 min with stirring (1000 rpm), thrombin (20 μL) was added, and changes in the transmittance caused by platelet aggregation were recorded over time. Thrombin was used at a minimum concentration causing maximum aggregation, and the aggregation suppressive rate (%) was calculated from the ratio of the maximum aggregation rate with addition of test compound to the maximum aggregation rate of control group. The test compound was dissolved in dimethyl sulfoxide and diluted with saline before use.

CCCc1c(C(=O)NC2CC2)nnn1-c1ccc(NC(C)=O)cc1 [Compound 1, 1-[4-(acetylamino)phenyl]-N-cyclopropyl-5-propyl-1H-1,2,3-triazole-4-carboxamide, reference compound]
IC50 [1]: 1.9 µM
aggregation suppressive rate (%) [2]: 66%

CCCc1c(C(=O)NCc2ccc(OC)cc2)nnn1-c1ccc(NC(C)=O)cc1 [Compound 2]
IC50 [1]: 2.1 µM
aggregation suppressive rate (%) [2]: 39%
